Results: patent US20220395553A1, “CXCR4 ANTAGONIST PEPTIDES” (COHBAR, INC., priority 2019, published 2022)
Square brackets hold non-standard residues; d marks the D form. Peptide text beside a SMILES is read from it.

Key:
Jurkat cells = experiment: CXCL12 mediated cell migration, Jurkat cells; assay type: cell-based, human; settings: 1.1 μM test article, 100 ng/ml CXCL12, 1 hour
Experimental: The assay was performed following a protocol similar to that described by Peng, et al., Mol Cancer Ther., 14480-90 (2015), incorporated herein by reference. Peptides were initially prepared as 1 mM stock in H2O and tested at a final concentration of 1.1 μM. […] Jurkat cells were resuspended in serum free media (RPMI+GlutaMax; Gibco/Thermo Fisher Scientific; Gaithersburg, Md.) containing 0.5% bovine serum albumin at density of 5×10^6 cells/ml. […] Cells (250,000 cells in 50 μl) supplemented with the appropriate treatments were seeded on to the upper chamber of a 96-well 5 μm HTS Transwell filter insert (Corning/Costar; Tewksbury, Mass.). […] Filter inserts were immediately placed on top of 96-well receiver trays and placed at 37° C. in a humidified atmosphere of 5% CO2/95% air for 1 hour. Following the 1 hour incubation period the filter inserts were carefully removed and the migration of cells across the filter into the bottom chamber (receiver wells) was determined by measuring ATP levels using Cell TiterGlo 2.0, according to manufacturer's instructions (Promega; Madison, Wis.); luminescence was measured using a Cytation 3 plate reader (BioTek; Winooski, Vt.).

[1] = system: CXCR4/CXCL12 induced p-MEK; experiment: CXCR4/CXCL12 induced p-MEK in Jurkat cells (ELISA); assay type: cell-based, human; settings: 5 nM CXCL12, 5 min
In short: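 Jurkat cells in RPMI+GlutaMax containing 10% FBS and 1% penicillin/streptomycin, fresh or conditioned, were resuspended at 2×10^6 cells/ml and […] aliquots placed in tubes. After a 5 min stimulation they were pelleted, rinsed with HBSS and lysed with PMSF and protease/phosphatase inhibitors. Phospho-MEK1 (Ser217/221) was quantified by sandwich ELISA with absorbance read at 450 nm.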

human CXCR4 [2] = biological target: T1, human CXCR4 (Homo sapiens, UniProt P61073); experiment: CXCR4/CXCL12 binding, HTRF format, single concentration (Example 23); parameters: host or cells: HEK293 (Tag-lite CXCR4 cells, frozen aliquots, transient expression); settings: 15 nM CXCR4R fluorescent probe, 3 hours, HEK293 Tag-lite CXCR4 cells
In short: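 Tag-lite CXCR4 cells were exposed to peptide at 400 nM final with 15 nM (EC80) fluorescent CXCR4 probe for 3 h at room temperature. HTRF was read, and the 665/620 nm ratio ×10,000 measured probe bound to terbium-labelled receptor.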

human CXCR4 [3] = biological target: T1, human CXCR4; experiment: IC50 for CXCR4/CXCL12 ligand binding, HTRF format (Example 24); parameters: host or cells: HEK293 (Tag-lite CXCR4 cells, frozen aliquots, transient expression)
Experimental: Peptides were initially prepared as 1 mM stock in H2O. […] Following the manufacture's protocol, a frozen aliquot of Tag-lite CXCR4 cells was thawed and immediately seeded onto 384-well plates in TLB. […] The plates were covered in aluminum foil and left at room temperature for 3 hours. Following the 3 hour incubation period, the plates were removed from the incubator and fluorescence measured using a Cytation 1 plate reader using a HTRF filter cube ([…]; BioTek; Winooski, Vt.).

human CXCR4 [4] = biological target: T1, human CXCR4; experiment: IC50 for inhibition of CXCR4 activation, β-Arrestin recruitment (Example 22); assay type: cell-based; parameters: host or cells: C2C12 (mouse myoblast) CXCR4 β-Arrestin PathHunter cell line
In short: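 C2C12 cells co-expressing ProLink-tagged human CXCR4 and Enzyme Acceptor-tagged β-arrestin (PathHunter). Peptides tested in 10-point, 3-fold dilutions from 1 μM (1 μM–0.05 nM). Recruitment read by chemiluminescent enzyme-fragment complementation after 90 min incubation.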

T1 sequence (P61073 whole entry): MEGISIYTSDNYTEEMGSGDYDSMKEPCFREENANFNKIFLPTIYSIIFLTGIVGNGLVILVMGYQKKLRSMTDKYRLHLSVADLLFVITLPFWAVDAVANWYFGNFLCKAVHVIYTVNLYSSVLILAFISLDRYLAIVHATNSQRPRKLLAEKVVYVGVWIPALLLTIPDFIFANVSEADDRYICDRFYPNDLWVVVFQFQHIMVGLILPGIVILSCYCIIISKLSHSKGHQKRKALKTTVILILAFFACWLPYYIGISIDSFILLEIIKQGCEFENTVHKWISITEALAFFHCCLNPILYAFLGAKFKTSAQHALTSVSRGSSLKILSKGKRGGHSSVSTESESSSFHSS

Row | SMILES | Percent Inhibition of CXCL12 Mediated Migration (1.1 μM Test Article) (Jurkat cells) [%] | Percent Inhibition of CXCR4/CXCL12 Induced p-MEK (100 nM Test Article) [1] [%] | Percent Inhibition of CXCR4/CXCL12 Induced p-MEK (1 μM Test Article) [1] [%] | Percent Inhibition of CXCR4/CXCL12 Binding (400 nM peptide) (human CXCR4 [2]) [%] | IC50 (human CXCR4 [3]) [nM] | IC50 (human CXCR4 [4]) [nM]
1 | CC(C)C[C@H](NC(=O)[C@H](CO)NC(=O)[C@H](CO)NC(=O)[C@H](CCCNC(=N)N)NC(=O)[C@@H](NC(=O)[C@H](CO)NC(=O)[C@H](Cc1c[nH]cn1)NC(=O)[C@H](Cc1c[nH]cn1)NC(=O)[C@H](Cc1ccc(O)cc1)NC(=O)[C@H](CCCNC(=N)N)NC(=O)[C@H](CC(=O)O)NC(=O)[C@@H](N)CC(C)C)C(C)C)C(=O)N[C@@H](CCCNC(=N)N)C(=O)N1CCC[C@H]1C(=O)N[C@@H](Cc1ccc(O)cc1)C(=O)N[C@H](C(=O)N[C@@H](CCCCN)C(=O)O)[C@@H](C)O [compound 7] (H-LDRYHHSVRSSLRPYTK-OH; N-terminus and C-terminus assumed) | 52 | 60 | 96 | 89 | 5 | –
2 | CC(C)C[C@H](NC(=O)[C@H](CO)NC(=O)[C@H](CO)NC(=O)[C@H](CCCNC(=N)N)NC(=O)[C@@H](C)NC(=O)[C@H](CO)NC(=O)[C@H](Cc1c[nH]cn1)NC(=O)[C@H](Cc1c[nH]cn1)NC(=O)[C@H](Cc1ccc(O)cc1)NC(=O)[C@H](CCCNC(=N)N)NC(=O)[C@H](CC(=O)O)NC(=O)[C@@H](N)CC(C)C)C(=O)N[C@@H](CCCNC(=N)N)C(=O)N1CCC[C@H]1C(=O)N[C@@H](Cc1ccc(O)cc1)C(=O)N[C@H](C(=O)N[C@@H](CCCCN)C(=O)O)[C@@H](C)O [compound 8] (H-LDRYHHS[dA]RSSLRPYTK-OH; N-terminus and C-terminus assumed) | 94 | 32 | 88 | 86 | – | 3
3 | CC(C)C[C@H](NC(=O)[C@H](CO)NC(=O)[C@H](CO)NC(=O)[C@H](CCCNC(=N)N)NC(=O)[C@@H](NC(=O)[C@H](CO)NC(=O)[C@H](Cc1c[nH]cn1)NC(=O)[C@H](Cc1c[nH]cn1)NC(=O)[C@H](Cc1ccc(O)cc1)NC(=O)[C@H](CCCNC(=N)N)NC(=O)[C@H](CCCNC(=N)N)NC(=O)[C@@H](N)CC(C)C)C(C)C)C(=O)N[C@@H](CCCNC(=N)N)C(=O)N1CCC[C@H]1C(=O)N[C@@H](Cc1ccc(O)cc1)C(=O)N[C@H](C(=O)N[C@@H](CCCCN)C(N)=O)[C@@H](C)O [compound 16] (H-LRRYHHSVRSSLRPYTK-NH2; N-terminus assumed) | 21 | 74 | 100 | −2 | 573 | 8
4 | CC(C)C[C@H](NC(=O)[C@H](CO)NC(=O)[C@H](CO)NC(=O)[C@H](CCCNC(=N)N)NC(=O)[C@@H](NC(=O)[C@@H](NC(=O)[C@H](Cc1c[nH]cn1)NC(=O)[C@H](Cc1c[nH]cn1)NC(=O)[C@H](Cc1ccc(O)cc1)NC(=O)[C@H](CCCNC(=N)N)NC(=O)[C@H](CCCNC(=N)N)NC(=O)[C@@H](N)CC(C)C)[C@@H](C)O)C(C)C)C(=O)N[C@@H](CCCNC(=N)N)C(=O)N1CCC[C@H]1C(=O)N[C@@H](Cc1ccc(O)cc1)C(=O)N[C@H](C(=O)N[C@@H](CCCCN)C(=O)O)[C@@H](C)O [compound 38] (H-LRRYHHTVRSSLRPYTK-OH; N-terminus and C-terminus assumed) | – | 51 | 96 | 12 | 175 | 3
5 | CC(C)C[C@H](NC(=O)[C@H](CO)NC(=O)[C@H](CO)NC(=O)[C@H](CCCNC(=N)N)NC(=O)[C@@H](NC(=O)[C@@H](NC(=O)[C@H](Cc1c[nH]cn1)NC(=O)[C@H](Cc1c[nH]cn1)NC(=O)[C@H](Cc1ccc(O)cc1)NC(=O)[C@H](CCCNC(=N)N)NC(=O)[C@H](CCC(=O)O)NC(=O)[C@@H](N)CC(C)C)[C@@H](C)O)C(C)C)C(=O)N[C@@H](CCCNC(=N)N)C(=O)N1CCC[C@H]1C(=O)N[C@@H](Cc1ccc(O)cc1)C(=O)N[C@H](C(=O)N[C@@H](CCCCN)C(=O)O)[C@@H](C)O [compound 39] (H-LERYHHTVRSSLRPYTK-OH; N-terminus and C-terminus assumed) | 77 | 38 | 95 | 87 | 8 | 3
6 | CC(C)C[C@H](NC(=O)[C@H](CO)NC(=O)[C@H](CO)NC(=O)[C@H](CCCNC(=N)N)NC(=O)[C@@H](NC(=O)[C@H](CO)NC(=O)[C@H](Cc1c[nH]cn1)NC(=O)[C@H](Cc1c[nH]cn1)NC(=O)[C@H](Cc1ccccc1)NC(=O)[C@H](CCCNC(=N)N)NC(=O)[C@H](CCCNC(=N)N)NC(=O)[C@@H](N)CC(C)C)C(C)C)C(=O)N[C@@H](CCCNC(=N)N)C(=O)N1CCC[C@H]1C(=O)N[C@@H](Cc1ccc(O)cc1)C(=O)N[C@H](C(=O)N[C@@H](CCCCN)C(=O)O)[C@@H](C)O [compound 53] (H-LRRFHHSVRSSLRPYTK-OH; N-terminus and C-terminus assumed) | 59 | 62 | 98 | 5 | – | 3
7 | CC(C)C[C@H](NC(=O)[C@H](CO)NC(=O)[C@@H](NC(=O)[C@H](CCCNC(=N)N)NC(=O)[C@@H](NC(=O)[C@H](CO)NC(=O)[C@H](Cc1c[nH]cn1)NC(=O)[C@H](Cc1c[nH]cn1)NC(=O)[C@H](Cc1ccc(O)cc1)NC(=O)[C@H](CCCNC(=N)N)NC(=O)[C@H](CCC(=O)O)NC(=O)[C@@H](N)CC(C)C)C(C)C)[C@@H](C)O)C(=O)N[C@@H](CCCNC(=N)N)C(=O)N1CCC[C@H]1C(=O)N[C@@H](Cc1ccc(O)cc1)C(=O)N[C@H](C(=O)N[C@@H](CCCCN)C(=O)O)[C@@H](C)O [compound 73] (H-LERYHHSVRTSLRPYTK-OH; N-terminus and C-terminus assumed) | 82 | 47 | 96 | 87 | – | 4
8 | CC(C)C[C@H](NC(=O)[C@H](CO)NC(=O)[C@H](CO)NC(=O)[C@H](CCCNC(=N)N)NC(=O)[C@@H](NC(=O)[C@H](CO)NC(=O)[C@H](Cc1c[nH]cn1)NC(=O)[C@H](Cc1c[nH]cn1)NC(=O)[C@H](Cc1ccc(O)cc1)NC(=O)[C@H](CCCNC(=N)N)NC(=O)[C@H](CCCNC(=N)N)NC(=O)[C@@H](N)CC(C)C)C(C)C)C(=O)N[C@@H](CCCNC(=N)N)C(=O)NCC(=O)N[C@@H](Cc1ccc(O)cc1)C(=O)N[C@H](C(=O)N[C@@H](CCCCN)C(=O)O)[C@@H](C)O [compound 79] (H-LRRYHHSVRSSLRGYTK-OH; N-terminus and C-terminus assumed) | 36 | 46 | 100 | 12 | – | 3
